Data as given in US9011853B2, “B7-H4 fusion proteins and methods of use thereof” (Amplimmune, Inc., priority 2009, dated 2015).
“And” between values parts separate entries of the source, which are not always exact repeats. Identical values can stand only once.

Tests used:
[1] = tested on: serum levels of 58 analytes; experiment: Serum biomarker analysis, quantitative immunoassay multi-analyte profiling (Rules-Based Medicine RodentMAP v2.9), AA#80; format: in vivo, mouse; details: serum, individual mice; for IL-18 (Interleukin-18): LDD 0.674; for CRP (C Reactive Protein): LDD 0.83; for Factor VII: LDD 0.958; for FGF-9 (Fibroblast Growth Factor-9): LDD 0.9926; for GM-CSF (Granulocyte Macrophage-Colony Stimulating Factor): LDD 8.746; for Apo A1 (Apoilpoprotein A1): LDD 10.4; for CD40: LDD 12; for Eotaxin: LDD 12.25; for IL-3 (Interleukin-3): LDD 21.274; for EGF (Epidermal Growth Factor): LDD 39.1; for IL-1alpha (Interleukin-1alpha): LDD 44.92; for Endothelin-1: LDD 66.95; for IL-2 (Interleukin-2): LDD 67; for IFN-gamma (Interferon-gamma): LDD 67.82; for IL-4 (Interleukin-4): LDD 73.54; for IL-11 (Interleukin-11): LDD 87.38; for CD40 Ligand: LDD 92; for IL-10 (Interleukin-10): LDD 109.26; for Fibrinogen: LDD 170; for GCP-2 (Granulocyte Chemotactic Potein-2): LDD 0.0245; for IL-17-(Interleukin-17): LDD 0.152; for GST-alpha (Glutathione S-Transferase alpha): LDD 0.42; for IL-1beta (Interleukin-1beta): LDD 0.447; for IL-12p70-(Interleukin-12p70): LDD 0.5712; for FGF-basic (Fibroblast Growth Factor-basic): LDD 0.577; for Haptoglobin: LDD 0.64
Protocol: In AA#80, serum samples were collected on Day 27, Day 34, Day 41 and Day 55 via the submandibular vein. Approximately 200 μL of blood per mouse was collected in Microtainer® serum separator tubes. Serum was removed following centrifugation and stored at <−65° C. until analysis.
Selected serum samples were sent to Rules-Based Medicine (Austin, Tex.) for quantitative immunoassay multi-analyte profiling of serum samples, with the goal of identifying biomarkers that could be used to monitor disease progression and response to B7-H4-Ig treatment. Day 27, Day 34, and Day 41 sera from the three representative mice in the B7-H4-Ig group (tag #3332, 3334, and 3338) and three representative mice in the Synagis® group (tag #3324, 3329, and 3330) were analyzed for levels of 58 analytes using the RodentMAP v2.9 Testing Service.
Data from the Rules-Based Medicine analysis was analyzed using Microsoft Excel and GraphPad Prism software. T-tests were performed to compare the levels of each analyte in the B7-H4-Ig versus Synagis® treated samples. No correction was made for multiple comparisons. Additionally, correlation coefficients were calculated for each analyte versus disease score.

DBA/1 mice = experiment: Therapeutic CIA study AA#80 (male mice), disease score; format: in vivo, mouse; details: for clinical score: individual mice sampled for serum analysis; for AA#80 CIA disease scores: individual mice (Tag #)
Protocol: DBA/1 mice (10 per group) aged 7-9 weeks were used for the CIA model. Mice from several vendors (Jackson Laboratories, Harlan Laboratories, and Taconic Farms) were tested and it was determined that Taconic mice are most appropriate for the CIA studies. Taconic mice develop more consistent and severe disease symptoms and show continued disease progression, while mice from the other vendors often show stable, less severe disease, even in the absence of treatment. female (F) mice in AA#79 and male (M) mice in AA#80, were tested to determine which gender to use in future experiments.
On the day before the study is initiated, the hair on the right flank of each mouse was removed using an electric clipper. A metal identification tag was placed on the right ear of each mouse. On Day 0, mice were immunized with 100 μL of chicken collagen type II/Complete Freund's Adjuvant (CII/CFA) emulsion in the right flank. On Day 20, the hair on the left flank of each mouse was removed using an electric clipper, and on Day 21, mice were immunized with 100 μL of chicken collagen type II/Incomplete Freund's Adjuvant (CII/IFA) emulsion in the left flank. Pre-filled syringes of CII/CFA and CII/IFA emulsion purchased from Hooke Laboratories were used to ensure consistent dosing with and potency of the immunogen.
Early arthritis symptoms, such as erythema and mild swelling, usually appear on Day 21, and on Day 28, more severe symptoms such as swelling in many digits and inflammation extending to the tarsal joint are typically present. Each limb is evaluated for severity of arthritis symptoms three times a week using a widely accepted arthritis severity score system, shown in Table 2. The scores from each of the 4 limbs are summed to yield the disease score of each mouse. […]
Treatment was initiated when the average disease score for the study animals was greater than four. This corresponded to Day 29 in AA#79 and Day 24 in […]. By waiting until animals are symptomatic, it was ensured that the model is performed in a therapeutic rather than prophylactic mode.
B7-H4-Ig, RPA110010, and murine B7-H4-Ig proteins were administered by intraperitoneal (IP) injection 3 times a week for a total of 8 doses. RPA110010 is an extracellular domain variant of B7-H4-Ig, SEQ ID NO:126. Control murine and human IgG proteins were given once a week for a total of 3 doses. […] All proteins were diluted to the desired concentration (500 μg in 500 μL, or 1 mg/mL) with sterile PBS immediately before injection. Vehicle control mice receive Amplimmune formulation buffer diluted 1:10 in PBS, with an injection volume of 500 μL.

GST-alpha (Glutathione S-Transferase alpha) ([1]; Day 34): <low> and 4.16 ng/ml and 2.96 ng/ml
Substance: Human B7-H4-Ig: human B7-H4 extracellular domain fused to hinge, CH2 and CH3 regions of human immunoglobulin Cγ1 chain; representative SEQ ID NOs:114-137
IL-18 (Interleukin-18) ([1]; Day 27): 13.3 ng/mL and 14.1 ng/mL and 11.7 ng/mL | CRP (C Reactive Protein) ([1]; Day 27): 13.4 µg/mL and 8.16 µg/mL and 7.98 µg/mL | Factor VII ([1]; Day 27): 33 ng/mL and 29.1 ng/mL and 26.4 ng/mL | FGF-9 (Fibroblast Growth Factor-9) ([1]; Day 27): <low> | GM-CSF (Granulocyte Macrophage-Colony Stimulating Factor) ([1]; Day 27): <low> | Apo A1 (Apoilpoprotein A1) ([1]; Day 27): 57.3 µg/mL and 53.7 µg/mL and 42.7 µg/mL | CD40 ([1]; Day 27): 135 pg/ml (2×) and 151 pg/ml | Eotaxin ([1]; Day 27): 626 pg/mL and 613 pg/mL and 623 pg/mL | IL-3 (Interleukin-3) ([1]; Day 27): <low> | EGF (Epidermal Growth Factor) ([1]; Day 27): 18.4 pg/mL and 21.4 pg/mL and 20.4 pg/mL | IL-1alpha (Interleukin-1alpha) ([1]; Day 27): 468 pg/mL and 284 pg/mL and 381 pg/mL | Endothelin-1 ([1]; Day 27): 20.2 pg/ml (2×) and 17.1 pg/ml | IL-2 (Interleukin-2) ([1]; Day 27): <low> | IFN-gamma (Interferon-gamma) ([1]; Day 27): <low> (2×) and 7.14 pg/ml | IL-4 (Interleukin-4) ([1]; Day 27): <low> and 27.9 pg/ml and 17.7 pg/ml | IL-11 (Interleukin-11) ([1]; Day 27): <low> (2×) and 27 pg/ml | CD40 Ligand ([1]; Day 27): 1980 pg/mL and 1550 pg/mL and 1320 pg/mL | IL-10 (Interleukin-10) ([1]; Day 27): <low> (2×) and 94.2 pg/ml | Fibrinogen ([1]; Day 27): <low> | GCP-2 (Granulocyte Chemotactic Potein-2) ([1]; Day 34): 17.1 ng/mL and 18.1 ng/mL and 16.2 ng/mL | IL-17-(Interleukin-17) ([1]; Day 34): 0.0152 ng/mL and 0.00808 ng/mL and 0.00572 ng/mL | IL-1beta (Interleukin-1beta) ([1]; Day 34): 5.12 ng/mL and 3.58 ng/mL | IL-12p70-(Interleukin-12p70) ([1]; Day 34): 0.0725 ng/ml and <low> | FGF-basic (Fibroblast Growth Factor-basic) ([1]; Day 34): 17.8 ng/mL | Haptoglobin ([1]; Day 34): 281 µg/mL and 162 µg/mL and 140 µg/mL | IL-18 (Interleukin-18) ([1]; Day 34): 11.7 ng/mL and 10.9 ng/mL and 13.1 ng/mL | CRP (C Reactive Protein) ([1]; Day 34): 17.2 µg/mL and 8.79 µg/mL and 12.4 µg/mL | Factor VII ([1]; Day 34): 31.7 ng/mL and 33 ng/mL and 29.1 ng/mL | FGF-9 (Fibroblast Growth Factor-9) ([1]; Day 34): <low> | GM-CSF (Granulocyte Macrophage-Colony Stimulating Factor) ([1]; Day 34): <low> | Apo A1 (Apoilpoprotein A1) ([1]; Day 34): 37.8 µg/mL and 48.5 µg/mL and 54.1 µg/mL | CD40 ([1]; Day 34): 96.7 pg/mL and 147 pg/mL and 136 pg/mL | Eotaxin ([1]; Day 34): 630 pg/mL and 602 pg/mL and 700 pg/mL | IL-3 (Interleukin-3) ([1]; Day 34): <low> | EGF (Epidermal Growth Factor) ([1]; Day 34): 22.4 pg/mL and 14.3 pg/mL and 20.4 pg/mL | IL-1alpha (Interleukin-1alpha) ([1]; Day 34): 361 pg/mL and 447 pg/mL and 587 pg/mL | Endothelin-1 ([1]; Day 34): 22.2 pg/mL and 20.2 pg/mL | IL-2 (Interleukin-2) ([1]; Day 34): <low> | IFN-gamma (Interferon-gamma) ([1]; Day 34): 7.14 pg/mL and 3.58 pg/mL | IL-4 (Interleukin-4) ([1]; Day 34): 17.7 pg/ml and <low> | IL-11 (Interleukin-11) ([1]; Day 34): 17.1 pg/mL | CD40 Ligand ([1]; Day 34): 1370 pg/mL and 2030 pg/mL and 2180 pg/mL | IL-10 (Interleukin-10) ([1]; Day 34): 94.2 pg/ml and <low> | Fibrinogen ([1]; Day 34): 136 ug/ml and <low> | GCP-2 (Granulocyte Chemotactic Potein-2) ([1]; Day 41): 16.9 ng/mL and 16.3 ng/mL and 20.9 ng/mL | IL-17-(Interleukin-17) ([1]; Day 41): 0.00572 ng/ml (2×) and <low> | GST-alpha (Glutathione S-Transferase alpha) ([1]; Day 41): 1.01 ng/mL and 0.477 ng/mL and 1.64 ng/mL | IL-1beta (Interleukin-1beta) ([1]; Day 41): 4.36 ng/ml and 5.12 ng/ml (2×) | IL-12p70-(Interleukin-12p70) ([1]; Day 41): <low> (2×) and 0.0914 ng/ml | FGF-basic (Fibroblast Growth Factor-basic) ([1]; Day 41): 19.9 ng/mL and 17.8 ng/mL and 18.8 ng/mL | Haptoglobin ([1]; Day 41): 267 µg/mL and 270 µg/mL and 193 µg/mL | IL-18 (Interleukin-18) ([1]; Day 41): 13.3 ng/mL and 11.7 ng/mL and 11.5 ng/mL | CRP (C Reactive Protein) ([1]; Day 41): 17.1 µg/mL and 10.6 µg/mL and 12.1 µg/mL | Factor VII ([1]; Day 41): 36.9 ng/mL and 30.4 ng/mL and 27.7 ng/mL | FGF-9 (Fibroblast Growth Factor-9) ([1]; Day 41): <low> | GM-CSF (Granulocyte Macrophage-Colony Stimulating Factor) ([1]; Day 41): <low> | Apo A1 (Apoilpoprotein A1) ([1]; Day 41): 46.8 µg/mL and 49.5 µg/mL and 46 µg/mL | CD40 ([1]; Day 41): 108 pg/mL and 105 pg/mL and 140 pg/mL | Eotaxin ([1]; Day 41): 629 pg/mL and 493 pg/mL and 694 pg/mL | IL-3 (Interleukin-3) ([1]; Day 41): <low> | EGF (Epidermal Growth Factor) ([1]; Day 41): 28.4 pg/mL and 16.3 pg/mL and 18.4 pg/mL | IL-1alpha (Interleukin-1alpha) ([1]; Day 41): 488 pg/mL and 284 pg/mL and 1950 pg/mL | Endothelin-1 ([1]; Day 41): 21.2 pg/mL and 20.2 pg/mL and 16 pg/mL | IL-2 (Interleukin-2) ([1]; Day 41): <low> | IFN-gamma (Interferon-gamma) ([1]; Day 41): 3.58 pg/ml (2×) and 7.14 pg/ml | IL-4 (Interleukin-4) ([1]; Day 41): 35.7 pg/ml and 17.7 pg/ml (2×) | IL-11 (Interleukin-11) ([1]; Day 41): 17.1 pg/ml and <low> (2×) | CD40 Ligand ([1]; Day 41): 1680 pg/mL and 1630 pg/mL and 1830 pg/mL | IL-10 (Interleukin-10) ([1]; Day 41): <low> | Fibrinogen ([1]; Day 41): <low> (2×) and 118 ug/ml | clinical score (DBA/1 mice; Day 27): 2 (2×) and 3 | clinical score (DBA/1 mice; Day 34): 5 and 4 | clinical score (DBA/1 mice; Day 41): 9 (2×) and 6 | AA#80 CIA disease scores (DBA/1 mice; Study Day 20): 4 (2×) and 2 (3×) and 3 (2×) and 5 (2×) | AA#80 CIA disease scores (DBA/1 mice; Study Day 22): 4 (4×) and 3 and 5 (4×) | AA#80 CIA disease scores (DBA/1 mice; Study Day 24): 4 (3×) and 5 (5×) and 2 | AA#80 CIA disease scores (DBA/1 mice; Study Day 27): 3 (3×) and 2 (5×) and 4 | AA#80 CIA disease scores (DBA/1 mice; Study Day 29): 2 (5×) and 3 and 1 and 5 (2×) | AA#80 CIA disease scores (DBA/1 mice; Study Day 31): 2 (4×) and 3 and 1 and 4 (2×) and 5 | AA#80 CIA disease scores (DBA/1 mice; Study Day 34): 2 (2×) and 5 (3×) and 1 and 4 (2×) and 6 | AA#80 CIA disease scores (DBA/1 mice; Study Day 36): 3 and 7 (3×) and 4 (3×) and 5 and 6 | AA#80 CIA disease scores (DBA/1 mice; Study Day 38): 3 (4×) and 7 and 9 and 5 and 6 and 10 and 12 | AA#80 CIA disease scores (DBA/1 mice; Study Day 41): 4 and 9 (5×) and 6 and 10 and 13 | AA#80 CIA disease scores (DBA/1 mice; Study Day 44): 3 and 11 (3×) and 8 and 9 and 12 and 14 and 4
